The text below walks through data of ChEMBL document CHEMBL1136862, “Development of thioquinazolinones, allosteric Chk1 kinase inhibitors” (Bioorg Med Chem Lett, 2009).

Each structure is given as a SMILES string.

Broadly, the IC50 is the concentration at which inhibition is half-maximal. By inhibition is commonly meant the share of the control response that was lost under treatment.

The first experiment concerns the target T1, Serine/threonine-protein kinase Chk1 (Homo sapiens, UniProt O14757).
T1 sequence (O14757 whole entry): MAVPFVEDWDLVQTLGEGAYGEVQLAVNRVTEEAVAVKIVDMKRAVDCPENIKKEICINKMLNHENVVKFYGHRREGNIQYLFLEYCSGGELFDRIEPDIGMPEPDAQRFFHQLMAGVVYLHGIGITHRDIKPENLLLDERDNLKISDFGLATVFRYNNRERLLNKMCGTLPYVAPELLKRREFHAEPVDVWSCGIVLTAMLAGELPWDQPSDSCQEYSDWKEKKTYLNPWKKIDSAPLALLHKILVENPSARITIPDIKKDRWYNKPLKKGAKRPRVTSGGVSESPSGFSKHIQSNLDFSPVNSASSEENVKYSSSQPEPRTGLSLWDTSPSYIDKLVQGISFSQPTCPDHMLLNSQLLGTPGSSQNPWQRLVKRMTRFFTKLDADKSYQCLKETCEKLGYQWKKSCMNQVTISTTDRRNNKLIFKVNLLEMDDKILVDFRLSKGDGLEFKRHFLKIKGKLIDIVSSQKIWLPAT
Briefly: Inhibition of C-terminal 6-His tagged human Chk1 by HTRF assay in presence of 2.0 mM ATP. For orientation: Time-resolved FRET reads energy transfer from a long-lived donor to a nearby acceptor.
Take `CCCCC(Sc1nc2ccccc2c(=O)n1-c1ccccc1)C(=O)N1CCC(C(N)=O)CC1` (stereo not drawn): the IC50 was found to be 24 µM.

In a further experiment the target is T2, Serine/threonine-protein kinase Chk1 (Homo sapiens) (UniProt O14757).
T2 sequence (whole entry): T1 sequence (O14757 whole entry)
The experiment can be described thus: Inhibition of C-terminal 6-His tagged human Chk1 at 100 uM by HTRF assay in presence of 0.1 mM ATP.
Take `CCCCC(Sc1nc2ccccc2c(=O)n1C1CCCCC1)C(=O)N1CCC(C(N)=O)CC1` (stereo not drawn): the inhibition is 17%. `CCCCC(Sc1nc2ccccc2c(=O)n1-c1ccccc1)C(=O)N(CC)CC` (stereo not drawn): the inhibition is 62%. As for `CCCCC(Sc1nc2ccccc2c(=O)n1Cc1cccnc1)C(=O)N1CCC(C(N)=O)CC1` (stereo not drawn), the inhibition is 26%. Turning to `CCCCC(Sc1nc2ccccc2c(=O)n1C(C)C)C(=O)N1CCC(C(N)=O)CC1` (stereo not drawn), the inhibition was 20%. The same measure, in the same setting: the result for `CCCCC(Sc1nc2ccccc2c(=O)n1C)C(=O)N1CCC(C(N)=O)CC1` (stereo not drawn) reads 48%; that for `CCCCC(Sc1nc2ccccc2c(=O)n1-c1cccnc1)C(=O)N1CCC(C(N)=O)CC1` (stereo not drawn), 35%. Same read-out and setting: as for `CCCCC(Sc1nc2ccccc2c(=O)n1-c1ccnc(Cl)c1)C(=O)N1CCC(C(N)=O)CC1` (stereo not drawn), the figure is 20%; as for `CCCCC(Sc1nc2ccc(C)cc2c(=O)n1-c1cccc(Cl)c1)C(=O)N1CCC(C(N)=O)CC1` (stereo not drawn), 30%; as for `CCCCC(Sc1nc2ccccc2c(=O)n1-c1ccccc1)C(=O)NC1CC2CCC1C2` (stereo not drawn), 3%.

Another experiment addresses T1, Serine/threonine-protein kinase Chk1. Briefly: Inhibition of C-terminal 6-His tagged human Chk1 by HTRF assay in presence of 0.1 mM ATP.
With `CCCCC(Sc1nc2ccccc2c(=O)n1-c1ccccc1)C(=O)N1CCCC2(CCCNC2)C1` (stereo not drawn), the IC50 is 3.8 µM. As for `CCCCC(Sc1nc2c(O)cccc2c(=O)n1-c1cccc(Cl)c1)C(=O)N1CCC(C(N)=O)CC1` (stereo not drawn), the IC50 was determined as 20 µM. Take `CCCCC(Sc1nc2ccccc2c(=O)n1-c1ccccc1)C(=O)NC1CCCCC1` (stereo not drawn): the IC50 is > 100 µM.

As to `CCCCC(Sc1nc2ccccc2c(=O)n1-c1ccccc1Cl)C(=O)N1CCC(C(N)=O)CC1` (stereo not drawn), the IC50 turned out to be 41 µM. In the case of `CCCCC(Sc1nc2ccccc2c(=O)n1-c1ccccc1)C(=O)NC(C)(C)C` (stereo not drawn), the IC50 was > 100 µM.

With `CCCCC(Sc1nc2ccccc2c(=O)n1-c1ccccc1)C(=O)N1CCC(c2ccccc2)(c2ccccc2)CC1` (stereo not drawn), the 50% inhibitory concentration (IC50) was 4.5 µM. As to `CCCCC(Sc1nc2ccccc2c(=O)n1-c1ccccc1)C(=O)N1CCN(c2ccccc2)CC1` (stereo not drawn), the IC50 turned out to be 3.3 µM. Take `CC(C)CC(Sc1nc2ccccc2c(=O)n1-c1cccc(Cl)c1)C(=O)N1CCC(C(N)=O)CC1` (stereo not drawn): the IC50 worked out at 2.8 µM. Take `CC(C)C(Sc1nc2ccccc2c(=O)n1-c1cccc(Cl)c1)C(=O)N1CCC(C(N)=O)CC1` (stereo not drawn): the IC50 was > 100 µM.

`CCCCC(Sc1nc2ccccc2c(=O)n1-c1ccc(Cl)cc1)C(=O)N1CCC(C(N)=O)CC1` (stereo not drawn): the IC50 was > 100 µM.

In the case of `CCCCC(Sc1nc2cccc(C)c2c(=O)n1-c1cccc(Cl)c1)C(=O)N1CCC(C(N)=O)CC1` (stereo not drawn), the IC50 is > 100 µM. In the case of `NC(=O)C1CCN(C(=O)C(Sc2nc3ccccc3c(=O)n2-c2cccc(Cl)c2)c2ccccc2)CC1` (stereo not drawn), the IC50 is 21 µM. The same measure, in the same setting: as for `CCCCC(Sc1nc2c(C)cccc2c(=O)n1-c1cccc(Cl)c1)C(=O)N1CCC(C(N)=O)CC1` (stereo not drawn), the figure is 17 µM; as for `CCCCC(Sc1nc2ccccc2c(=O)n1-c1ccccc1)C(=O)N1CCC(C(N)=O)CC1` (stereo not drawn), 17 µM. With `CCCCC(Sc1nc2cc(C)ccc2c(=O)n1-c1cccc(Cl)c1)C(=O)N1CCC(C(N)=O)CC1` (stereo not drawn), the IC50 was determined as 28 µM.

For `CCCCC(Sc1nc2c(OC)cccc2c(=O)n1-c1cccc(Cl)c1)C(=O)N1CCC(C(N)=O)CC1` (stereo not drawn), the IC50 was found to be 21 µM.

Regarding `CCCCC(Sc1nc2ccccc2c(=O)n1-c1ccccc1)C(=O)NC12CC3CC(CC(C3)C1)C2` (stereo not drawn), the IC50 is > 100 µM. Same read-out and setting: as for `CCCCC(Sc1nc2ccccc2c(=O)n1-c1ccccc1)C(=O)N1CCS(=O)(=O)CC1` (stereo not drawn), the figure is 6 µM.
